Series [1] is described as follows: In vitro intestinal digestion of carrier oil in fasted media (pH 6.5): solubilisation of CBD. It is filed as in vitro ADME. The note with it: with TPM. The protocol: FIG. 1—Solubilisation of CBD during in vitro intestinal digestion of carrier oil (MCT, LCT/LCFA, or a mixture of MCT:LCT/LCFA) in fasted media (pH 6.5). Total lipid was 110 mg (100 mg carrier oil+10 mg CBD). Data are mean±SD, n=3. A. CBD concentration (mg) during digestion in MCT. B. CBD concentration (mg) during digestion in LCT/LCFA (Maisine CC). C. CBD concentration (mg) during digestion in a mixture of MCT:LCT/LCFA (Maisine CC)
FIG. 2—Solubilisation of CBD in the presence of TPM during in vitro gastro-intestinal digestion of carrier oil (MCT, LCT/LCFA, or a mixture of MCT:LCT/LCFA) in fasted media. Total lipid was 110 mg (80-90 mg carrier oil+10 mg CBD+10-20 mg TPM). Data are mean±SD, n=3. A. CBD concentration (mg) during digestion in MCT with TPM. B. CBD concentration (mg) during digestion in LCT/LCFA (Maisine CC) with TPM. C. CBD concentration (mg) during digestion in a mixture of MCT:LCT/LCFA (Maisine CC) with TPM.
FIG. 3—Solubilisation of CBD in the presence of TPM during in vitro digestion of carrier oil (MCT, LCT/LCFA, or a mixture of MCT:LCT/LCFA) in fasted media (pH 6.5). Total lipid was 110 mg (80-90 mg carrier oil+10 mg CBD+10-20 mg TPM). Data are mean±SD, n=3. A. CBD concentration (mg) during digestion in 3:1 MCT:LCT/LCFA, with TPM. B. CBD concentration (mg) during digestion in 1:1 MCT:LCT/LCFA, with TPM. C. CBD concentration (mg) during digestion in 1:3 MCT:LCT/LCFA, with TPM.
In vitro digestion experiments were carried out to determine whether TPM in various carrier oils could increase the intestinal aqueous solubility of CBD. These experiments utilised a model of digestion in an intestinal environment at a pH of about 6.5. From the model, one can make determinations regarding the likely solubility of CBD or other cannabinoids such as THC in an aqueous intestinal fluid.

Series [2] can be described thus: In-vitro rat lipolysis: simulated rat gastric (0-30 min) and intestinal (30-90 min) digestion. In kind it is in vitro ADME. The protocol: FIG. 4. CBD solubility in-vitro in simulated gastric (0-30 min) and intestinal (30-90 min) conditions. Group 1: MCT. Group 2: 50 mg/ml TPM in MCT. Group 3: 100 mg/ml TPM in MCT. Group 4: 100 mg/ml TPM in 1:1 MCT/Maisine CC. Group 5: 200 mg/ml TPM in 1:1 MCT/Maisine CC.
Further in-vitro lipolysis experiments were conducted to investigate CBD dispersibility and solubility in a model of the gastric and intestinal spaces. The effect of TPM and the formulation vehicle was assessed by comparison to CBD dissolved in an MCT vehicle at 100 mg/ml. A rat gastric-intestinal model was selected in order to have best correlation with a subsequent in-vivo pk study in rats.
The in vitro lipolysis experiment simulated rat gastrointestinal conditions. The dispersion study was done in a lipolysis vessel containing simulated rat gastric medium at pH 2.4 and the gastric digestion of the formulations was assessed during 30 min. Afterwards, a concentrated bile buffer together with pancreatin was added to the gastric medium leading to the final concentrations which simulated the rat intestinal conditions. Subsequently, lipid digestion and drug solubilization was evaluated for 60 min.

The nature of series [3]: In vivo bioavailability (pk study) after a single oral gavage. Set-up: species or system Sprague-Dawley rats. To be noted: rats. The protocol:
Male Sprague-Dawley rats (301-353 g at the time of the study) are acclimatized for a minimum of seven days on standard feed with free access to water. The rats are housed under controlled environmental parameters (temperature: 22.1° C., relative humidity: 57%), and with reversed light cycle (12 h/12 h).
The formulations are administered to each rat by oral gavage with a polyurethane feeding tube (Instech Laboratories Inc., Plymouth Meeting, USA). Blood samples (200 μL) are collected from the tail vein before dosing and at 0, 0.5, 1, 2, 4, 6, and 8 h after dosing. After the 6 h blood sample, the rats were given access to standard feed. At 23 h, the rats are euthanized by gassing and a blood sample is withdrawn from the heart immediately after. All blood samples were collected in ethylenediaminetetraacetic acid (EDTA) tripotassium salt dihydrate coated tubes (Sarstedt, Helsingborg, Sweden), and centrifuged at 10,000 RPM for 10 min. After centrifugation, the plasma was transferred to polypropylene microtubes and stored at −20° C. until LC-MS analysis.

Take `C=C(C)[C@@H]1CCC(C)=C[C@H]1c1c(O)cc(CCCCC)cc1O` [CBD, cannabidiol]: the “aqueous CBD solubility during digestion, by MCT:LCT/LCFA ratio” value in series [1] (vehicle 1:1 MCT:LCT/LCFA) is reported as “best increase”; in series [1] (vehicle 1:3 MCT:LCT/LCFA, also significant CBD in immiscible oil phase), “slight increase”; in series [1] (vehicle 3:1 MCT:LCT/LCFA), “CBD precipitation”. Further, the “dispersibility and solubility of CBD in simulated gastric and intestinal spaces” value in series [2] (addition of TPM to MCT containing CBD (100 mg/ml)) was “increased”. Besides, the “dispersibility and solubility of CBD in the intestinal space” value in series [2] (addition of TPM to MCT:LCT/LCFA vehicles containing CBD (100 mg/ml)) was “increased”. For the same molecule, the “increase of mean Cmax relative to control CBD formulation in MCT alone” value is about 5 × in series [3] (addition of 50 mg/ml TPM to MCT carrier), about 14 times in series [3] (addition of 100 mg/ml TPM to MCT carrier), about 30 × in series [3] (addition of 100 mg/ml TPM to MCT:LCT/LCFA carrier) and about 40 times in series [3] (addition of 200 mg/ml TPM to MCT:LCT/LCFA carrier).

The values are drawn from US12539307B2, “Oral cannabinoid formulation comprising tocopheryl phosphates and long chain triglycerides or long chain fatty acids” (AVECHO BIOTECHNOLOGY LIMITED, priority 2020, dated 2026).
